In patent US20150038438A1, “ANTIBACTERIAL COMPOUNDS AND METHODS FOR USE” (PTC THERAPEUTICS, INC., priority 2011, published 2015):
Counter-ions that a name gives are not always drawn. Like-named read-outs stand apart in the source and are kept apart here.

Columns and labels:
Assay in all cases: Antibacterial activity, microbroth dilution method (MIC)
[1] = test system: control Gram-negative E. coli 25922 strain; assay type: cell-based, Escherichia coli; conditions: Escherichia coli
Summary of the method: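 Lowest concentration stopping macroscopically visible growth under test conditions, by broth microdilution, defines the MIC (μg/mL).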

[2] = test system: super sensitive Gram-negative Escherichia coli (E. coli) BAS849; assay type: cell-based; conditions: Escherichia coli, read-out: MIC, E. coli BAS849
Summary of the method: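 Values are MICs (μg/mL): the smallest drug amount at which macroscopically visible bacterial growth is absent under assay conditions, from a microdilution method in broth.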

[3] = test system: Gram-positive Staphylococcus aureus (S. aureus) 29213; assay type: cell-based; conditions: Staphylococcus aureus, Gram-positive S. aureus 29213
Summary of the method: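 Using broth microdilution, MIC endpoints (μg/mL) mark where visible growth no longer appears; the panel spans sensitive and control Gram-negative strains plus a Gram-positive strain.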

[4] = super sensitive Gram-negative E. coli BAS849, microbroth dilution

CN(C)CCN(C)Cc1cc2cc3c(cc2n1C)CCCc1c-3[nH]c(=O)c(C(=O)O)c1O.Cl.Cl [Cpd 145, 10-(((2-(dimethylamino)ethyl)(methyl)amino)methyl)-4-hydroxy-9-methyl-2-oxo-1,2,5,6,7,9-hexahydropyrido[3′,2′:6,7]cyclohepta[1,2-f]indole-3-carboxylic acid dihydrochloride]
MIC [1]: 12.5 to 150 µg/mL
MIC [2, 4]: < 1 µg/mL
MIC [3]: 12.5 to 150 µg/mL

CCC(C)NCc1cc2cc3c(cc2n1C)CCCc1c-3[nH]c(=O)c(C(=O)O)c1O.Cl (stereo not drawn) [Cpd 146, 10-((sec-butylamino)methyl)-4-hydroxy-9-methyl-2-oxo-1,2,5,6,7,9-hexahydropyrido[3′,2′:6,7]cyclohepta[1,2-f]indole-3-carboxylic acid hydrochloride]
MIC [1]: < 1 µg/mL
MIC [2, 4]: < 1 µg/mL
MIC [3]: 3.5 to 12.5 µg/mL

Cl.Cn1c(CNCCO)cc2cc3c(cc21)CCCc1c-3[nH]c(=O)c(C(=O)O)c1O [Cpd 147, 4-hydroxy-10-(((2-hydroxyethyl)amino)methyl)-9-methyl-2-oxo-1,2,5,6,7,9-hexahydropyrido[3′,2′:6,7]cyclohepta[1,2-f]indole-3-carboxylic acid hydrochloride]
MIC [1]: 3.5 to 12.5 µg/mL
MIC [2, 4]: < 1 µg/mL
MIC [3]: 12.5 to 150 µg/mL

COCCNCc1cc2cc3c(cc2n1C)CCCc1c-3[nH]c(=O)c(C(=O)O)c1O.Cl [Cpd 148, 4-hydroxy-10-(((2-methoxyethyl)amino)methyl)-9-methyl-2-oxo-1,2,5,6,7,9-hexahydropyrido[3′,2′:6,7]cyclohepta[1,2-f]indole-3-carboxylic acid hydrochloride]
MIC [1]: < 1 µg/mL
MIC [2, 4]: < 1 µg/mL
MIC [3]: 12.5 to 150 µg/mL

CN(CCO)Cc1cc2cc3c(cc2n1C)CCCc1c-3[nH]c(=O)c(C(=O)O)c1O.Cl [Cpd 149, 4-hydroxy-10-(((2-hydroxyethyl)(methyl)amino)methyl)-9-methyl-2-oxo-1,2,5,6,7,9-hexahydropyrido[3′,2′:6,7]cyclohepta[1,2-f]indole-3-carboxylic acid hydrochloride]
MIC [1]: 3.5 to 12.5 µg/mL
MIC [2, 4]: < 1 µg/mL
MIC [3]: 3.5 to 12.5 µg/mL

COCC(C)NCc1cc2cc3c(cc2n1C)CCCc1c-3[nH]c(=O)c(C(=O)O)c1O.Cl (stereo not drawn) [Cpd 150, 4-hydroxy-10-(((1-methoxypropan-2-yl)amino)methyl)-9-methyl-2-oxo-1,2,5,6,7,9-hexahydropyrido[3′,2′:6,7]cyclohepta[1,2-f]indole-3-carboxylic acid hydrochloride]
MIC [1]: 1 to 3.5 µg/mL
MIC [2, 4]: < 1 µg/mL
MIC [3]: 3.5 to 12.5 µg/mL

CC(CO)NCc1cc2cc3c(cc2n1C)CCCc1c-3[nH]c(=O)c(C(=O)O)c1O.Cl (stereo not drawn) [Cpd 151, 4-hydroxy-10-(((1-hydroxypropan-2-yl)amino)methyl)-9-methyl-2-oxo-1,2,5,6,7,9-hexahydropyrido[3′,2′:6,7]cyclohepta[1,2-f]indole-3-carboxylic acid hydrochloride]
MIC [1]: 1 to 3.5 µg/mL
MIC [2, 4]: 3.5 to 12.5 µg/mL
MIC [3]: 12.5 to 150 µg/mL

Cl.Cl.Cn1c(CNCCN2CCCC2)cc2cc3c(cc21)CCCc1c-3[nH]c(=O)c(C(=O)O)c1O [Cpd 152, 4-hydroxy-9-methyl-2-oxo-10-(((2-(pyrrolidin-1-yl)ethyl)amino)methyl)-1,2,5,6,7,9-hexahydropyrido[3′,2′:6,7]cyclohepta[1,2-f]indole-3-carboxylic acid dihydrochloride]
MIC [1]: 3.5 to 12.5 µg/mL
MIC [2, 4]: < 1 µg/mL
MIC [3]: 12.5 to 150 µg/mL

C=CCNCc1cc2cc3c(cc2n1C)CCCc1c-3[nH]c(=O)c(C(=O)O)c1O.Cl [Cpd 153, 10-((allylamino)methyl)-4-hydroxy-9-methyl-2-oxo-1,2,5,6,7,9-hexahydropyrido[3′,2′:6,7]cyclohepta[1,2-f]indole-3-carboxylic acid hydrochloride]
MIC [1]: < 1 µg/mL
MIC [2, 4]: < 1 µg/mL
MIC [3]: 3.5 to 12.5 µg/mL

CC(C)CNCc1cc2cc3c(cc2n1C)CCCc1c-3[nH]c(=O)c(C(=O)O)c1O.Cl [Cpd 154, 4-hydroxy-10-((isobutylamino)methyl)-9-methyl-2-oxo-1,2,5,6,7,9-hexahydropyrido[3′,2′:6,7]cyclohepta[1,2-f]indole-3-carboxylic acid hydrochloride]
MIC [1]: < 1 µg/mL
MIC [2, 4]: < 1 µg/mL
MIC [3]: 3.5 to 12.5 µg/mL

Cl.Cn1c(CNCC(C)(C)C)cc2cc3c(cc21)CCCc1c-3[nH]c(=O)c(C(=O)O)c1O [Cpd 155, 4-hydroxy-9-methyl-10-((neopentylamino)methyl)-2-oxo-1,2,5,6,7,9-hexahydropyrido[3′,2′:6,7]cyclohepta[1,2-f]indole-3-carboxylic acid hydrochloride]
MIC [1]: 1 to 3.5 µg/mL
MIC [2, 4]: < 1 µg/mL
MIC [3]: 3.5 to 12.5 µg/mL

CN1CCCN(Cc2cc3cc4c(cc3n2C)CCCc2c-4[nH]c(=O)c(C(=O)O)c2O)CC1.Cl.Cl [Cpd 156, 4-hydroxy-9-methyl-10-((4-methyl-1,4-diazepan-1-yl)methyl)-2-oxo-1,2,5,6,7,9-hexahydropyrido[3′,2′:6,7]cyclohepta[1,2-f]indole-3-carboxylic acid dihydrochloride]
MIC [1]: 3.5 to 12.5 µg/mL
MIC [2, 4]: < 1 µg/mL
MIC [3]: 12.5 to 150 µg/mL

CN1CCC(NCc2cc3cc4c(cc3n2C)CCCc2c-4[nH]c(=O)c(C(=O)O)c2O)CC1.Cl.Cl [Cpd 157, 4-hydroxy-9-methyl-10-(((1-methylpiperidin-4-yl)amino)methyl)-2-oxo-1,2,5,6,7,9-hexahydropyrido[3′,2′:6,7]cyclohepta[1,2-f]indole-3-carboxylic acid dihydrochloride]
MIC [1]: 1 to 3.5 µg/mL
MIC [2, 4]: < 1 µg/mL
MIC [3]: 12.5 to 150 µg/mL

COC1CCN(Cc2cc3cc4c(cc3n2C)CCCc2c-4[nH]c(=O)c(C(=O)O)c2O)C1.Cl (stereo not drawn) [Cpd 158, 4-hydroxy-10-((3-methoxypyrrolidin-1-yl)methyl)-9-methyl-2-oxo-1,2,5,6,7,9-hexahydropyrido[3′,2′:6,7]cyclohepta[1,2-f]indole-3-carboxylic acid hydrochloride]
MIC [1]: 1 to 3.5 µg/mL
MIC [2, 4]: < 1 µg/mL
MIC [3]: 3.5 to 12.5 µg/mL

CC(=O)NC1CCN(Cc2cc3cc4c(cc3n2C)CCCc2c-4[nH]c(=O)c(C(=O)O)c2O)C1.Cl (stereo not drawn) [Cpd 159, 10-((3-acetamidopyrrolidin-1-yl)methyl)-4-hydroxy-9-methyl-2-oxo-1,2,5,6,7,9-hexahydropyrido[3′,2′:6,7]cyclohepta[1,2-f]indole-3-carboxylic acid hydrochloride]
MIC [1]: 3.5 to 12.5 µg/mL
MIC [2, 4]: < 1 µg/mL
MIC [3]: 12.5 to 150 µg/mL

CC(CN(C)C)NCc1cc2cc3c(cc2n1C)CCCc1c-3[nH]c(=O)c(C(=O)O)c1O.Cl.Cl (stereo not drawn) [Cpd 160, 10-(((1-(dimethylamino)propan-2-yl)amino)methyl)-4-hydroxy-9-methyl-2-oxo-1,2,5,6,7,9-hexahydropyrido[3′,2′:6,7]cyclohepta[1,2-f]indole-3-carboxylic acid dihydrochloride]
MIC [1]: 3.5 to 12.5 µg/mL
MIC [2, 4]: < 1 µg/mL
MIC [3]: 12.5 to 150 µg/mL

Cl.Cn1c(CNCC2CCCO2)cc2cc3c(cc21)CCCc1c-3[nH]c(=O)c(C(=O)O)c1O (stereo not drawn) [Cpd 161, 4-hydroxy-9-methyl-2-oxo-10-((((tetrahydrofuran-2-yl)methyl)amino)methyl)-1,2,5,6,7,9-hexahydropyrido[3′,2′:6,7]cyclohepta[1,2-f]indole-3-carboxylic acid hydrochloride]
MIC [1]: 1 to 3.5 µg/mL
MIC [2, 4]: < 1 µg/mL
MIC [3]: 12.5 to 150 µg/mL

CN1CCC2CN(Cc3cc4cc5c(cc4n3C)CCCc3c-5[nH]c(=O)c(C(=O)O)c3O)CC21.Cl.Cl (stereo not drawn) [Cpd 162, 4-hydroxy-9-methyl-10-((1-methylhexahydropyrrolo[3,4-b]pyrrol-5(1H)-yl)methyl)-2-oxo-1,2,5,6,7,9-hexahydropyrido[3′,2′:6,7]cyclohepta[1,2-f]indole-3-carboxylic acid dihydrochloride]
MIC [1]: 3.5 to 12.5 µg/mL
MIC [2, 4]: < 1 µg/mL
MIC [3]: 12.5 to 150 µg/mL

CN(C)C(=O)CNCc1cc2cc3c(cc2n1C)CCCc1c-3[nH]c(=O)c(C(=O)O)c1O.Cl [Cpd 163, 10-(((2-(dimethylamino)-2-oxoethyl)amino)methyl)-4-hydroxy-9-methyl-2-oxo-1,2,5,6,7,9-hexahydropyrido[3′,2′:6,7]cyclohepta[1,2-f]indole-3-carboxylic acid hydrochloride]
MIC [1]: 3.5 to 12.5 µg/mL
MIC [2, 4]: < 1 µg/mL
MIC [3]: 12.5 to 150 µg/mL

CCNCCc1cc2cc3c(cc2n1C)C=CCc1c-3[nH]c(=O)c(C(=O)O)c1O.O=C(O)C(F)(F)F [Cpd 164, 10-(2-(ethylamino)ethyl)-4-hydroxy-9-methyl-2-oxo-1,2,5,9-tetrahydropyrido[3′,2′:6,7]cyclohepta[1,2-f]indole-3-carboxylic acid trifluoroacetate]
MIC [1]: 1 to 3.5 µg/mL
MIC [2]: < 1 µg/mL
MIC [3]: 12.5 to 150 µg/mL

CCNCCc1cc2cc3c(cc2n1C)CCCc1c-3[nH]c(=O)c(C(=O)O)c1O.O=C(O)C(F)(F)F [Cpd 165, 10-(2-(ethylamino)ethyl)-4-hydroxy-9-methyl-2-oxo-1,2,5,6,7,9-hexahydropyrido[3′,2′:6,7]cyclohepta[1,2-f]indole-3-carboxylic acid trifluoroacetate]
MIC [1]: 1 to 3.5 µg/mL
MIC [2]: < 1 µg/mL
MIC [3]: 12.5 to 150 µg/mL

O=C(O)c1c(O)c2c([nH]c1=O)-c1ccc(N[C@@H]3CC[C@H]4CNC[C@H]43)cc1OCC2 [Cpd 166, 4-hydroxy-9-(((cis)-octahydrocyclopenta[c]pyrrol-4-yl)-(cis)-amino)-2-oxo-1,2,5,6-tetrahydrobenzo[2,3]oxepino[4,5-b]pyridine-3-carboxylic acid hydrochloride]
MIC [1]: 12.5 to 150 µg/mL
MIC [2, 4]: 12.5 to 150 µg/mL
MIC [3]: 12.5 to 150 µg/mL

Cl.Cn1c(CNC2(C)CC2)cc2cc3c(cc21)OCCc1c-3[nH]c(=O)c(C(=O)O)c1O [Cpd 167, 4-hydroxy-9-methyl-10-(((1-methylcyclopropyl)amino)methyl)-2-oxo-2,5,6,9-tetrahydro-1H-pyrido[2′,3′:4,5]oxepino[3,2-f]indole-3-carboxylic acid hydrochloride]
MIC [1]: < 1 µg/mL
MIC [2, 4]: < 1 µg/mL
MIC [3]: 1 to 3.5 µg/mL
